From patent publication US8026218B2, “Bifunctional analgesic compounds for opioid receptor agonists and neurokinin-1 receptor antagonists” (The University of Arizona, priority 2006, dated 2011)
Where two headings read alike, the source gives them in different places. Peptide text beside a SMILES is read from it.

Tests used:
[1] = target: T1, human δ opioid receptors (hDOR) (Homo sapiens, UniProt P41143); experiment: Radioligand competition binding, [3H]DPDPE, hDOR membranes; settings: for LogIC50, hDOR, [3H]DPDPE: membranes from transfected HN9.10 cells
T1 construct: expressed in transfected cells; host or cells: HN9.10 neuroblastoma cell line, pCDNA3, neomycin-selected clones
T1 sequence (P41143 whole entry): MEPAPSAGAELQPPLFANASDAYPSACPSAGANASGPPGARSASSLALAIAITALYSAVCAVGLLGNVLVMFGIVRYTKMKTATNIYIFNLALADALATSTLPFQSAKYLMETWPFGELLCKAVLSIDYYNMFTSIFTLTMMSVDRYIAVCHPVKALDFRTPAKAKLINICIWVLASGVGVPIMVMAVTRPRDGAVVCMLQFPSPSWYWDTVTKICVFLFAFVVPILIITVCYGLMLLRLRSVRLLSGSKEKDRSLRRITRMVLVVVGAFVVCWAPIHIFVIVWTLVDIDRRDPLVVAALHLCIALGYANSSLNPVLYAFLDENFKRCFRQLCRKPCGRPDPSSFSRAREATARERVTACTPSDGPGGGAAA

[2] = target: T2, rat μ opioid receptors (rMOR) (Rattus norvegicus, UniProt P33535); experiment: biochemical; type: biochemical
T2 construct: expressed in transfected cells; host or cells: HN9.10 neuroblastoma cell line, pCDNA3, neomycin-selected clones
T2 sequence (P33535 whole entry): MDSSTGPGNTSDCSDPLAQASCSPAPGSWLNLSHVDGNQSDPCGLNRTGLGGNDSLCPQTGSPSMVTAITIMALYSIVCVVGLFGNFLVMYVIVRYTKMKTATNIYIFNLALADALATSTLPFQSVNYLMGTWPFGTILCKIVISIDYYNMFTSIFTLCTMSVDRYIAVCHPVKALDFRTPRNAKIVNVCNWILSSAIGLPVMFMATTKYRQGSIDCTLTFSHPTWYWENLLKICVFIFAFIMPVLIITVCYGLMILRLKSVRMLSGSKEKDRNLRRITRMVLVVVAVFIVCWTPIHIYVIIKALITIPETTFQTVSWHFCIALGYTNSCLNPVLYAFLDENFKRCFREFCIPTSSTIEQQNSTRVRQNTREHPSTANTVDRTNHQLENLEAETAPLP

δ opioid receptors (MVD) = target: T3, δ opioid receptors (MVD) (Mus musculus, UniProt P32300); experiment: Mouse isolated vas deferens (MVD) assay, opioid agonist
T3 construct: from tissue; host or cells: mouse (ICR) isolated vas deferens
T3 sequence (P32300 whole entry): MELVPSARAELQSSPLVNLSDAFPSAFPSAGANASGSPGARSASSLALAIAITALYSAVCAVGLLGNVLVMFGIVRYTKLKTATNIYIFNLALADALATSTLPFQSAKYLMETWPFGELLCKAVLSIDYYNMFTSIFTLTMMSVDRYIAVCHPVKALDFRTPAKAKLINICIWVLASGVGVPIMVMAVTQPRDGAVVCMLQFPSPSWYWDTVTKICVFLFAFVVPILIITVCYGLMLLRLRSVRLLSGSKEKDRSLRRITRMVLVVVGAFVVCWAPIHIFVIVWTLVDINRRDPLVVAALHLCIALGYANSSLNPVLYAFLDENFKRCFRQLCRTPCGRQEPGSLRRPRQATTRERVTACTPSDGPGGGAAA

rat NK1 (rNK1) receptor = target: T4, rat NK1 (rNK1) receptor (Rattus norvegicus, UniProt P14600); experiment: Radioligand competition binding, [3H]substance P, rNK1/CHO membranes; settings: for IC50: membranes from transfected CHO cells
T4 construct: expressed in transfected cells; host or cells: CHO (rNK-1/CHO cell line from Dr. James Krause)
T4 sequence (P14600 whole entry): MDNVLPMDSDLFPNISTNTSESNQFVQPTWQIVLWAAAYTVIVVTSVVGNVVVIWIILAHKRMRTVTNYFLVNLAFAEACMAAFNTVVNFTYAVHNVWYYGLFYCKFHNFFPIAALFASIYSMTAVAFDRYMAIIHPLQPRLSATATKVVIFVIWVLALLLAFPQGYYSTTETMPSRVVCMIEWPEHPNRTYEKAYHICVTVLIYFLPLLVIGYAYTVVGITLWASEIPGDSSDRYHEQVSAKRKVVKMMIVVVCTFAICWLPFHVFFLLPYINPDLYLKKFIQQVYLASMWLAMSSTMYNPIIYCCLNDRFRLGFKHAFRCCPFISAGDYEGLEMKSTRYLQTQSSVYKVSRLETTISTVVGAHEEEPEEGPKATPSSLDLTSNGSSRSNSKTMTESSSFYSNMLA

[3] = target: T1, human δ opioid receptors (hDOR); experiment: [35S]GTP-γ-S binding assay, hDOR; type: biochemical
[4] = target: T2, rat μ opioid receptors (rMOR); experiment: Radioligand competition binding, [3H]DAMGO, rMOR membranes
μ opioid receptors (GPI) = experiment: Guinea pig isolated ileum (GPI) assay, opioid agonist; set-up: GPI/LMMP Opioid(m) Agonist, % inh.: unit of the concentration uncertain; settings: for GPI/LMMP Opioid(m) Agonist, % inh.: at 1 (unit uncertain); for GPI (μ), effect at single concentration: at 1 μM;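 for all read-outs here: inhibition of electrically evoked contractions (0.1 Hz, 0.4 msec, supramaximal voltage) in organ baths at 37 °C, contraction height 3 min after each cumulative dose versus the 1 min before dosing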
Protocol: Guinea Pig Isolated Ileum Assay. […] These tissues were tied to gold chains with suture silk and mounted between platinum wire electrodes in 20 mL organ baths at a tension of 1 g and bathed in oxygenated (95:5 O2:CO2) Kreb's bicarbonate buffer at 37° C. and stimulated electrically (0.1 Hz, 0.4 msec duration) at supramaximal voltage. Following an equilibration period, compounds were added cumulatively to the bath in volumes of 14-60 μL until maximum inhibition was reached. A baseline PL-017 was constructed to determine tissue integrity and allow calculation of antagonist activity before opioid analog testing began.
For opioid data analysis, percentage inhibition was calculated using the average tissue contraction height for 1 min preceding the addition of the agonist divided by the contraction height 3 min after exposure to the dose of agonist. […] IC50 and Emax estimates were determined by computerized nonlinear least-squares analysis (the pharmacological statistics package FlashCalc: Dr. Michael Ossipov, University of Arizona, Tucson, Ariz.). […] A50 values represent the mean of not less than 4 tissues. A50 and Emax estimates were determined by computerized nonlinear least-squares analysis (FlashCalc).

[5] = target: T5, Substance P receptors (guinea pig NK1) (Cavia porcellus, UniProt P30547); experiment: Guinea pig isolated ileum (GPI) assay with substance P stimulation in presence of 1 μM naloxone; settings: for activation at 1 µM: read-out: Substance P GPI agonist (A50), contraction relative to initial muscle contraction with KCl
T5 construct: from tissue; host or cells: guinea pig (Hartley) ileum LMMP, 1 μM naloxone present
T5 sequence (P30547 whole entry): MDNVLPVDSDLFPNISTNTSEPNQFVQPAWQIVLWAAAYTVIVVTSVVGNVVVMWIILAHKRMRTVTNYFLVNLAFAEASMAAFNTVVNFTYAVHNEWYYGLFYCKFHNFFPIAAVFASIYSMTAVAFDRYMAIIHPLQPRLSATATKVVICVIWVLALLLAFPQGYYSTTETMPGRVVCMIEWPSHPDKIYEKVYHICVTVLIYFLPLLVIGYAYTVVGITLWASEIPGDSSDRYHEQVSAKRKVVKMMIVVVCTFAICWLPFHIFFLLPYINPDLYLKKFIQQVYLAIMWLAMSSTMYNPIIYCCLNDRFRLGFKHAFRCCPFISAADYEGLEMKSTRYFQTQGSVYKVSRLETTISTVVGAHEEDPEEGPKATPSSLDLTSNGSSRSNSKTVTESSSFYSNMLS
Protocol: Testing stopped at 1 mM concentrations of the test compound.
Analysis of GPI and MVD assays. For opioid data analysis, percentage inhibition was calculated using the average tissue contraction height for 1 min preceding the addition of the agonist divided by the contraction height 3 min after exposure to the dose of agonist. […] IC50 and Emax estimates were determined by computerized nonlinear least-squares analysis (the pharmacological statistics package FlashCalc: Dr. Michael Ossipov, University of Arizona, Tucson, Ariz.). […] A50 values represent the mean of not less than 4 tissues. A50 and Emax estimates were determined by computerized nonlinear least-squares analysis (FlashCalc).

[6] = target: T6, human NK1 receptor (hNK1) (Homo sapiens, UniProt P25103); experiment: Radioligand competition binding, [3H]-Substance P, hNK1
T6 construct: expressed in transfected cells
T6 sequence (P25103 whole entry): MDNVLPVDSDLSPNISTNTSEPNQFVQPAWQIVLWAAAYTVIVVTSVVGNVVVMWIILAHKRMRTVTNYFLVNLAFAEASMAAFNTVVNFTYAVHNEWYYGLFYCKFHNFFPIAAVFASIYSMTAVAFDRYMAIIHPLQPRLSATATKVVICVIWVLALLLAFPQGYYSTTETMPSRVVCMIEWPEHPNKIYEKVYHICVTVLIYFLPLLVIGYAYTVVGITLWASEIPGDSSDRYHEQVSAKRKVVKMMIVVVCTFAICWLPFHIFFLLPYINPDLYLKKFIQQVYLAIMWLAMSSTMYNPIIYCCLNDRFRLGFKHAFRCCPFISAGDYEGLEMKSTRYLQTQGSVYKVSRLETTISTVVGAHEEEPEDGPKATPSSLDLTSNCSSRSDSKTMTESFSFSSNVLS

[7] = Substance P antagonist, GPI, Ke, in the presence of 1 μM naloxone
[8] = Table 39, concentration not given
[9] = Table 39, read-out: GTP binding rMOR Emax
[10] = Table 28, read-out: MVD Opioid (d) Agonist (IC50; nM)
[11] = Table 39, read-out: MVD opioid(delta) agonist (IC50; nM)
[12] = electrically stimulated isolated tissue, read-out: MVD (δ), IC50
[13] = IC50, rNK1, Substance P radioligand
[14] = LogIC50, rNK1, Substance P radioligand
[15] = read-out: EC50, hDOR, [35S]GTP-γ-S binding
[16] = read-out: Emax, hDOR, [35S]GTP-γ-S binding
[17] = read-out: GTP binding hDOR EC50
[18] = read-out: GTP binding hDOR Emax
[19] = read-out: GTP binding hDOR Emax (%)
[20] = Table 39, read-out: GPI/LMMP opioid(mu) agonist (IC50; nM)
[21] = Table 39, read-out: GTP binding hDOR Emax
[22] = Table 30, read-out: GPI/LMMP Opioid(m) Agonist (IC50; nM)

Compound: CC(C)C[C@H](NC(=O)[C@H](Cc1ccccc1)NC(=O)CNC(=O)[C@@H](C)NC(=O)[C@@H](N)Cc1ccc(O)cc1)C(=O)N[C@@H](Cc1c[nH]c2ccccc12)C(=O)OCc1cc(C(F)(F)F)cc(C(F)(F)F)c1 [NP37] (HELM PEPTIDE1{Y.[dA].G.F.L.W.[FC(F)(F)c1cc(CO[*:1])cc(C(F)(F)F)c1]}$$$$V2.0; N-terminus assumed)
- Ki [1]: 2.9 nM
- EC50 ([2]; Table 32, read-out: GTP rMOR EC50): 14 nM
- Emax ([2]; Table 32, read-out: GTP rMOR EMax): 54%
- IC50 (δ opioid receptors (MVD)): 25.7 nM
- Ki (rat NK1 (rNK1) receptor; Affinity (Ki, nM) rNK1, Table 32): 0.29 nM
- EC50 ([3]; Table 32, read-out: GTP hDOR EC50): 4.8 nM
- Emax ([3]; Table 32, read-out: GTP hDOR EMax): 60%
- Ki [4]: 23.3 nM

Compound: CC(C)C[C@H](NC(=O)[C@@H]1CCCN1C(=O)[C@H](Cc1ccccc1)NC(=O)[C@H](Cc1ccccc1)NC(=O)CNC(=O)[C@@H](C)NC(=O)[C@@H](N)Cc1ccc(O)cc1)C(=O)N[C@@H](Cc1c[nH]c2ccccc12)C(=O)OCc1cc(C(F)(F)F)cc(C(F)(F)F)c1 [TY003, H-Tyr-D-Ala-Gly-Phe-Phe-Pro-Leu-Trp-O-3,5-Bzl(CF3)2]
- Ki [1]: 14.6 nM
- Ki(μ)/Ki(δ) ([1]; binding, rMOR vs hDOR): 1.9
- LogIC50, hDOR, [3H]DPDPE [1]: −7.50 ± 0.14
- GPI/LMMP Opioid(m) Agonist, % inh. (μ opioid receptors (GPI); Table 28): 7% inh. at 1 mM
- GPI/LMMP opioid(mu) Antagonist (μ opioid receptors (GPI); Table 39): none
- GPI/LMMP opioid(mu) agonist, % at 1 uM (μ opioid receptors (GPI); Table 39, at 1 uM): 6.6% @ 1 uM
- GPI (μ), effect at single concentration (μ opioid receptors (GPI)): 7% at 1 μM^b
- Kb [5, 7]: 14.4 ± 4.9 nM
- GPI/LMMP SP Agonist (IC50; nM) [5, 8]: none
- activation at 1 µM [5]: 0%
- LogEC50, rMOR, [35S]GTP-γ-S binding [2]: −7.23 ± 0.18
- EC50 ([2]; Table 27, read-out: GTP binding rMOR EC50): 58.7 nM
- Emax ([2]; Table 27, read-out: GTP binding rMOR Emax (%)): 36.3%
- EC50 ([2]; Table 39, read-out: GTP binding rMOR EC50): 58.7 nM
- Emax [2, 9]: 36.3%
- Emax ([2]; net total bound/basal binding × 100, read-out: Emax, rMOR, [35S]GTP-γ-S binding): 41%
- EC50 ([2]; read-out: EC50, rMOR, [35S]GTP-γ-S binding): 58.7 nM
- IC50 (δ opioid receptors (MVD); [10]): 905 nM
- IC50 (δ opioid receptors (MVD); [11]): 905 nM
- IC50 (δ opioid receptors (MVD); [12]): 905 ± 186 nM
- IC50 (rat NK1 (rNK1) receptor; [13]): 19.3 nM
- IC50 (rat NK1 (rNK1) receptor; [14]): 19.1 nM
- Ki(μ)/Ki(δ) [3]: 2.8
- LogEC50, hDOR, [35S]GTP-γ-S binding [3]: −7.68 ± 0.20
- EC50 [3, 15]: 20.8 nM
- Emax [3, 16]: 39%
- EC50 [3, 17]: 20.8 nM
- Emax [3, 18]: 39%
- Emax [3, 19]: 39%
- Ki ([4]; Table 27, read-out: Affinity rMOR (Ki; nM)): 28.3 nM
- Ki ([4]; Table 39, read-out: Affinity rMOR (Ki; nM)): 28.3 nM
- LogIC50, rMOR, [3H]DAMGO ([4]; membranes from transfected HN9.10 cells): −7.22 ± 0.10
- Ki ([4]; read-out: Ki, rMOR, [3H]DAMGO): 28.3 nM

Compound: CCCC[C@@H](C(=O)N1CCC[C@H]1C(=O)N[C@@H](CC(C)C)C(=O)N[C@@H](Cc1c[nH]c2ccccc12)C(=O)OCc1cc(C(F)(F)F)cc(C(F)(F)F)c1)N(C)C(=O)[C@H](Cc1ccccc1)NC(=O)CNC(=O)[C@@H](C)NC(=O)[C@@H](N)Cc1ccc(O)cc1 [TY019, H-Tyr-D-Ala-Gly-Phe-N-Me-Nle-Pro-Leu-Trp-O-3,5-Bzl(CF3)2]
- LogIC50, hDOR, [3H]DPDPE [1]: −6.79 ± 0.13
- GPI/LMMP Opioid(m) Agonist, % inh. (μ opioid receptors (GPI); Table 28): 12% inh. at 1 mM
- GPI/LMMP opioid(mu) agonist, % (μ opioid receptors (GPI); [8]): 11.90%
- GPI (μ), effect at single concentration (μ opioid receptors (GPI)): 12% at 1 μM^b
- IC50 [5]: 4.6 nM
- Kb [5, 7]: 4.6 ± 1.2 nM
- GPI/LMMP SP Agonist, % inh. ([5]; Table 28): 2% inh. at 1 mM
- GPI/LMMP SP Agonist, % @ 1 uM ([5]; Table 39, @ 1 uM): 1.6%@ 1 uM
- activation at 1 µM [5]: 2%
- IC50 (δ opioid receptors (MVD); [10]): 188 nM
- IC50 (δ opioid receptors (MVD); [11]): 188 nM
- IC50 (δ opioid receptors (MVD); [12]): 188 ± 21 nM
- IC50 (rat NK1 (rNK1) receptor; [13]): 135 nM
- IC50 (rat NK1 (rNK1) receptor; [14]): 112 nM
- LogEC50, hDOR, [35S]GTP-γ-S binding [3]: −6.44 ± 0.27
- EC50 [3, 15]: 364 nM
- Emax [3, 16]: 316%
- EC50 [3, 17]: 364 nM
- Emax [3, 18]: 283%
- Emax [3, 19]: 283%

Compound: CC(C)C[C@H](NC(=O)[C@@H]1CCCN1C(=O)[C@H](CC[S+](C)[O-])NC(=O)[C@H](Cc1ccccc1)NC(=O)CNC(=O)[C@@H](C)NC(=O)[C@@H](N)Cc1ccc(O)cc1)C(=O)N[C@@H](Cc1c[nH]c2ccccc12)C(=O)OCc1cc(C(F)(F)F)cc(C(F)(F)F)c1 (stereo partly drawn) [TY023, H-Tyr-D-Ala-Gly-Phe-Met(O)-Pro-Leu-Trp-O-3,5-Bzl(CF3)2]
- LogIC50, hDOR, [3H]DPDPE [1]: −7.92 ± 0.04
- Ki ([1]; read-out: Ki, hDOR, [3H]DPDPE): 4.8 nM
- IC50 (μ opioid receptors (GPI); Table 28, read-out: GPI/LMMP Opioid(m) Agonist (IC50; nM)): 154 nM
- IC50 (μ opioid receptors (GPI); [20]): 154 nM
- IC50 (μ opioid receptors (GPI); electrically stimulated isolated tissue, read-out: GPI (μ), IC50): 154 nM
- Kb [5, 7]: 7.8 ± 4 nM
- IC50 (δ opioid receptors (MVD); [10]): 33 nM
- IC50 (δ opioid receptors (MVD); [11]): 33 nM
- IC50 (δ opioid receptors (MVD); [12]): 33 nM
- IC50 (rat NK1 (rNK1) receptor; [13]): 54.5 nM
- Ki (rat NK1 (rNK1) receptor; Ki, rNK1, text): 54.5 nM
- Ki (rat NK1 (rNK1) receptor; Table 39, read-out: Affinity rNK1 (Ki; nM)): 0.2 nM
- LogEC50, hDOR, [35S]GTP-γ-S binding [3]: −8.73 ± 0.20
- EC50 ([3]; Table 27, read-out: GTP binding hDOR EC50): 1.8 nM
- Emax ([3]; Table 27, read-out: GTP binding hDOR Emax (%)): 52.8%
- EC50 ([3]; Table 39, read-out: GTP binding hDOR EC50): 1.8 nM
- Emax [3, 21]: 52.8%
- Emax ([3]; net total bound/basal binding × 100, read-out: Emax, hDOR, [35S]GTP-γ-S binding): 53%
- EC50 [3, 15]: 1.8 nM

Compound: CSCC[C@H](NC(=O)[C@H](Cc1ccccc1)NC(=O)CNC(=O)[C@@H](C)NC(=O)[C@@H](N)Cc1c(C)cc(O)cc1C)C(=O)N1CCC[C@H]1C(=O)N[C@@H](CC(C)C)C(=O)N[C@@H](Cc1c[nH]c2ccccc12)C(=O)NCc1cc(C(F)(F)F)cc(C(F)(F)F)c1 [TY032]
- Ki [1]: 0.12 nM
- IC50 (μ opioid receptors (GPI); [22]): 18.6 nM
- IC50 (μ opioid receptors (GPI); [20]): 18.6 nM
- GPI/LMMP Substance P Agonist (IC50; nM) ([5]; Table 30): None
- GPI/LMMP SP Agonist (IC50; nM) ([5]; Table 39, at 100 nM): none
- Emax [2, 9]: 74%
- IC50 (δ opioid receptors (MVD)): 1.82 nM
- EC50 ([3]; GTP binding hDOR EC50): 1.2 nM
- Emax [3, 18]: 24%
- Ki [6]: 0.008 nM

Compound: CSCC[C@H](NC(=O)[C@H](Cc1ccccc1)NC(=O)CNC(=O)[C@@H](C)NC(=O)[C@@H](N)Cc1c(C)cc(O)cc1C)C(=O)N1CCC[C@H]1C(=O)N[C@@H](CC(C)C)C(=O)N[C@@H](Cc1c[nH]c2ccccc12)C(=O)NCc1ccccc1 [TY034]
- Ki [1]: 0.1 nM
- IC50 (μ opioid receptors (GPI); [22]): 11.4 nM
- IC50 (μ opioid receptors (GPI); [20]): 11.4 nM
- Kb ([5]; GPI/LMMP Substance P Antagonist (Ke; nM), Table 30): 36.9 nM
- GPI/LMMP Substance P Agonist (IC50; nM) ([5]; Table 30): None
- GPI/LMMP SP Agonist (IC50; nM) ([5]; Table 39, at 100 nM): none
- Emax [2, 9]: 58%
- IC50 (δ opioid receptors (MVD)): 6.85 nM
- Ki (rat NK1 (rNK1) receptor; Affinity rNK1 (Ki; nM), Table 39): 317 nM
- Emax [3, 21]: 21%
- Ki [4]: 0.14 nM

Compound: CCCC[C@H](NC(=O)[C@H](Cc1ccccc1)NC(=O)CNC(=O)[C@@H](C)NC(=O)[C@@H](N)Cc1c(C)cc(O)cc1C)C(=O)N1CCC[C@H]1C(=O)N[C@@H](CC(C)C)C(=O)N[C@@H](Cc1c[nH]c2ccccc12)C(=O)N(C)Cc1cc(C(F)(F)F)cc(C(F)(F)F)c1 [TY052]
- Ki ([1]; Table 31, read-out: Affinity hDOR (Ki; nM)): 0.46 nM
- Ki ([1]; Table 39, read-out: Affinity hDOR (Ki; nM)): 0.46 nM
- Ki ([6]; Table 31, read-out: Affinity hNK1 (Ki; nM)): 0.21 nM
- Ki ([6]; Table 39, read-out: Affinity hNK1 (Ki; nM)): 0.21 nM
